Laboratory results from patent publication US10450288B2, “Hydroxy formamide derivatives and their use” (GLAXOSMITHKLINE INTELLECTUAL PROPERTY (NO.2) LIMITED, priority 2014, dated 2019).

Tests used:
[1] = system: human cardiac fibroblasts; test: Cell-based inhibition assay of generation of procollagen I C-terminal propeptide (PICP), PICP ELISA; conditions: Cardiac fibroblast; human cardiac fibroblasts, crowding media, 24 to 48 hr, PICP ELISA of media; read-out: pIC50, PICP cellular inhibition assay (converted)
Outline: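 Cardiac fibroblasts (passage ≤6) treated 24–48 h at 37 °C with compounds in ficoll crowding medium containing 100 μM ascorbic acid, DMSO <0.3%. PICP secreted into the medium was quantified by ELISA, normalised to untreated controls and fitted to log(inhibitor)–response to give pIC50.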

[2] = system: human cardiac fibroblasts; test: Cell-based inhibition assay of mature collagen deposition (immunostaining); conditions: Cardiac fibroblast; human cardiac fibroblasts, crowding media, 24 to 48 hr, collagen I immunostaining normalized to nuclei; read-out: pIC50, mature collagen cellular inhibition assay (converted)
Protocol: Cell-Based Inhibition Assay of Generation of Procollagen I C-Terminal Propeptide (PICP) and Mature Collagen:
An adaptation of the collagen deposition assay described by Chen, C. Z. C., et al., British Journal of Pharmacology, 2009, 158, 1196-1209 was used to examine effect of compounds on procollagen I processing and collagen deposition. In the adapted assay, human cardiac fibroblasts were utilized. Processing of procollagen I was determined by a PICP ELISA assay and deposition of mature collagen was determined by immunostaining.
Human cardiac fibroblasts were cultured and maintained until passage 6 in FGM-3 media (Lonza, #CC-3132) in a 37° C. humidified incubator with 5% CO2. They were then seeded in 96-well black wall, clear bottom plates at 10,000 to 15,000 cells per well in eagle's minimum essential media (EMEM, ATCC #30-2003) containing 10% fetal bovine serum (FBS, Life Technologies #10082147), 1% Glutamax (Life Technologies #35050061) and 1% Penicillin and Streptomycin (Life Technologies #15070063). These cultures were placed in 37° C. incubator. The next day, media were removed by aspiration and cells were rinsed with phosphate buffered saline. Crowding media (also called ficoll media) was prepared by adding 112.5 mg/ml of ficoll70 and 75 mg/ml ficoll400 (GE healthcare #17-0310-10 and 17-0300-10, respectively), 100 μM ascorbic acid, 1% Glutamax and 1% Penicillin and Streptomycin to EMEM media. Test compounds (dissolved in DMSO) were diluted into crowding media and then added to the cells. Final concentration of DMSO in crowding media was less than 0.3%. Cells were treated for 24 to 48 hr in a 37° C. incubator. At the end of the treatment period, cell media were collected. The level of PICP in the media were determined by a PICP ELISA assay (Quidel #8003) following the manufacturer's protocol. Potencies of test compounds were calculated by fitting PICP levels, relative to untreated controls, to log (inhibitor) vs. response equation using Graphpad Prism software 5.0 and expressed as pIC50.
For some compounds, deposition of mature collagen was measured by immunostaining in addition to PICP levels. At the end of the treatment period, cells on culture plate were fixed with 100% methanol (prechilled to −20° C.) for 10 min. Then the cells were immunostained with mouse anti-mature collagen I antibody (1:500 dilution, Sigma#C2456), anti-mouse secondary antibody Alexa647 (1:500 dilution, Invitrogen#A21236) and Hoechst (for nuclei, 2 μg/ml, Invitrogen#H3596). Fluorescent image acquisition was done using the Operetta High Content Imaging system (Perkin Elmer). For each image field, the intensity of mature collagen staining was normalized with the number of nuclei. Normalized collagen levels were used to calculate the potency of test compounds with Graphpad Prism software, as described above.

| SMILES | IC50 [1] | IC50 [2] |
| --- | --- | --- |
| CCCCC[C@@H](C(=O)NCNC(=O)c1ccc(-c2cc(O)c(C(=O)O)c(OCC)c2)o1)[C@@H](CC)N(O)C=O [Example 128, 2-ethoxy-6-hydroxy-4-(5-((((R)-2-((R)-1-(N-hydroxyformamido)propyl)heptanamido)methyl)carbamoyl)furan-2-yl)benzoic acid] | < 3980 nM | < 1000 nM |
| CCCCC[C@@H](C(=O)NCNC(=O)c1ccc(-c2ccc(C(=O)N[C@H](CC(=O)O)C(=O)O)c(OCC)c2)o1)[C@@H](CC)N(O)C=O [Example 132, (R)-2-(2-ethoxy-4-(5-((((R)-2-((R)-1-(N-hydroxyformamido)propyl)heptanamido)methyl)carbamoyl)furan-2-yl)benzamido) succinic acid] | < 3980 nM | < 1000 nM |
| CCCCC[C@@H](C(=O)NCNC(=O)c1ccc(-c2ccc(C(=O)NCP(=O)(O)O)c(OCC)c2)o1)[C@@H](CC)N(O)C=O [Example 139, ((2-ethoxy-4-(5-((((R)-2-((R)-1-(N-hydroxyformamido)propyl)heptanamido)methyl)carbamoyl)furan-2-yl)benzamido)methyl)phosphonic acid] | < 3980 nM | < 1000 nM |
